Results from patent publication US8658564B2, “Fungicide active ingredient combinations” (Bayer Cropscience AG, priority 2007, dated 2014).

Columns and labels:
Pyrenophora teres = Pyrenophora teres test (barley)/protective; type: in vivo, Pyrenophora teres on barley; conditions: 62.5 g/ha; evaluation 10 days after inoculation
Experimental: Pyrenophora teres Test (Barley)/Protective • Solvent: 50 parts by weight of N,N-dimethylacetamide • Emulsifier: 1 part by weight of alkylaryl polyglycol ether To produce a suitable preparation of active compound, 1 part by weight of active compound or active compound combination is mixed with the stated amounts of solvent and emulsifier, and the concentrate is diluted with water to the desired concentration, or a commercial formulation of active compound or active compound combination is diluted with water to the desired concentration. To test for protective activity, young plants are sprayed with the active compound preparation at the stated application rate. After the spray coating has dried on, the plants are sprayed with a conidia suspension of Pyrenophora teres. The plants remain in an incubation cabin at 20° C. and 100% relative atmospheric humidity for 48 hours. The plants are then placed in a greenhouse at a temperature of about 20° C. and a relative atmospheric humidity of about 80%. Evaluation is carried out 10 days after the inoculation. Here, 0% means an efficacy which corresponds to that of the control, whereas an efficacy of 100% means that no infection is observed.

Leptosphaeria nodorum = Leptosphaeria nodorum test (wheat)/protective; type: in vivo, Leptosphaeria nodorum on wheat; conditions: evaluation 10 days after inoculation
Experimental: Leptosphaeria nodorum Test (Wheat)/Protective • Solvent: 50 parts by weight of N,N-dimethylacetamide • Emulsifier: 1 part by weight of alkylaryl polyglycol ether To produce a suitable preparation of active compound, 1 part by weight of active compound is mixed with the stated amounts of solvent and emulsifier, and the concentrate is diluted with water to the desired concentration. To test for protective activity, young plants are sprayed with the active compound preparation at the stated application rate. After the spray coating has dried on, the plants are sprayed with a spore suspension of Leptosphaeria nodorum. The plants remain in an incubation cabin at 20° C. and 100% relative atmospheric humidity for 48 hours. The plants are placed in a greenhouse at a temperature of about 20° C. and a relative atmospheric humidity of 80%. Evaluation is carried out 10 days after the inoculation. Here, 0% means an efficacy which corresponds to that of the control, whereas an efficacy of 100% means that no infection is observed.

Rhizoctonia solani = Rhizoctonia solani test (in vitro)/microtitre plates; type: cell-based; conditions: 120 h, application rate 0.1 ppm, 5 days incubation, PDB medium, read-out: % efficacy
Experimental: Rhizoctonia solani Test (In Vitro)/Microtitre Plates The microtest is carried out in microtitre plates using Potato Dextrose Broth (PDB) as liquid test medium. The active compounds are used as technical-grade a.i., dissolved in methanol. For inoculation, a mycelium suspension of Rhizoctonia solani is used. After 5 days of incubation in the dark and with shaking (10 Hz), the transparency of each filled cavity of the microtitre plates is determined with the aid of a spectrophotometer. Here, 0% means an efficacy which corresponds to the growth in the controls, whereas an efficacy of 100% means that no fungal growth is observed.

## OC(Cc1ccccc1Cl)(Cn1nc[nH]c1=S)C1(Cl)CC1 (stereo not shown) [(II) Prothioconazole, prothioconazole]
Pyrenophora teres
  Efficacy in % found: 44%

## COCC(=O)N(c1c(C)cccc1C)C(C)C(=O)OC (stereo not shown) [(III) Metalaxyl, metalaxyl]
Pyrenophora teres
  Efficacy in % found: 0%
Leptosphaeria nodorum; 125 g/ha
  Efficacy in % found: 11%

## Cc1nn(C)c(F)c1C(=O)Nc1ccccc1C(C)CC(C)C (stereo not shown) [(I), N-[2-(1,3-Dimethylbutyl)phenyl]-5-fluoro-1,3-dimethyl-1H-pyrazole-4-carboxamide]
Pyrenophora teres
  Efficacy in % found: 67%
Leptosphaeria nodorum; 62.5 g/ha
  Efficacy in % found: 0%

## CC(C)(C)C(O)(CCc1ccc(Cl)cc1)Cn1cncn1 (racemic) [Tebuconazole, (RS)-1-p-chlorophenyl-4,4-dimethyl-3-(1H-1,2,4-triazol-1-ylmethyl)-pentan-3-ol]
Rhizoctonia solani
  Emax at 0.1 ppm: 13%
Leptosphaeria nodorum; 62.5 g/ha
  Efficacy in % found: 56%
